This note sets out measurements from patent US12371428B2 (Exelixis, Inc., priority 2019, dated 2025).

Assay [1] addresses KDR (phospho-KDR, VEGF165-stimulated HUVEC cells) (Homo sapiens (Human), UniProt P35968). The assay is described as follows: KDR autophosphorylation ELISA in HUVEC cells (Example G). It counts as cell-based. The following applies: cellular activity; KDR autophosphorylation ELISA in HUVEC cells. The gist of the method: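 HUVECs were serum-starved 24 h, given compound as an 8-point dilution series (0.3% DMSO final) for 1 h, then stimulated with 100 ng/mL VEGF165 for 5 min. Lysate phospho-KDR was quantified by sandwich ELISA against a phospho-KDR standard, and IC50s came from a 4-parameter logistic fit.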

Assay [2] deals with Met (phospho-Met, HGF-stimulated PC-3 prostate cancer cells) (Homo sapiens (Human), UniProt P08581). The assay is described as follows: Met autophosphorylation ELISA in PC-3 cells (Example F). As to conditions: cellular activity; Met autophosphorylation ELISA in PC-3 cells; read-out: c-Met IC50. It counts as cell-based. In a few lines: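 Compounds were tested on HGF-stimulated PC-3 cells. After 24 h culture and 3 h serum starvation, cells got compound for 1 h and 100 ng/mL HGF for 10 min, and Met tyrosine phosphorylation was measured by ELISA.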
Background: In an ELISA, binding on a coated surface is turned into a signal by an enzyme label.

Chain of KDR (phospho-KDR, VEGF165-stimulated HUVEC cells) (P35968 20-1356): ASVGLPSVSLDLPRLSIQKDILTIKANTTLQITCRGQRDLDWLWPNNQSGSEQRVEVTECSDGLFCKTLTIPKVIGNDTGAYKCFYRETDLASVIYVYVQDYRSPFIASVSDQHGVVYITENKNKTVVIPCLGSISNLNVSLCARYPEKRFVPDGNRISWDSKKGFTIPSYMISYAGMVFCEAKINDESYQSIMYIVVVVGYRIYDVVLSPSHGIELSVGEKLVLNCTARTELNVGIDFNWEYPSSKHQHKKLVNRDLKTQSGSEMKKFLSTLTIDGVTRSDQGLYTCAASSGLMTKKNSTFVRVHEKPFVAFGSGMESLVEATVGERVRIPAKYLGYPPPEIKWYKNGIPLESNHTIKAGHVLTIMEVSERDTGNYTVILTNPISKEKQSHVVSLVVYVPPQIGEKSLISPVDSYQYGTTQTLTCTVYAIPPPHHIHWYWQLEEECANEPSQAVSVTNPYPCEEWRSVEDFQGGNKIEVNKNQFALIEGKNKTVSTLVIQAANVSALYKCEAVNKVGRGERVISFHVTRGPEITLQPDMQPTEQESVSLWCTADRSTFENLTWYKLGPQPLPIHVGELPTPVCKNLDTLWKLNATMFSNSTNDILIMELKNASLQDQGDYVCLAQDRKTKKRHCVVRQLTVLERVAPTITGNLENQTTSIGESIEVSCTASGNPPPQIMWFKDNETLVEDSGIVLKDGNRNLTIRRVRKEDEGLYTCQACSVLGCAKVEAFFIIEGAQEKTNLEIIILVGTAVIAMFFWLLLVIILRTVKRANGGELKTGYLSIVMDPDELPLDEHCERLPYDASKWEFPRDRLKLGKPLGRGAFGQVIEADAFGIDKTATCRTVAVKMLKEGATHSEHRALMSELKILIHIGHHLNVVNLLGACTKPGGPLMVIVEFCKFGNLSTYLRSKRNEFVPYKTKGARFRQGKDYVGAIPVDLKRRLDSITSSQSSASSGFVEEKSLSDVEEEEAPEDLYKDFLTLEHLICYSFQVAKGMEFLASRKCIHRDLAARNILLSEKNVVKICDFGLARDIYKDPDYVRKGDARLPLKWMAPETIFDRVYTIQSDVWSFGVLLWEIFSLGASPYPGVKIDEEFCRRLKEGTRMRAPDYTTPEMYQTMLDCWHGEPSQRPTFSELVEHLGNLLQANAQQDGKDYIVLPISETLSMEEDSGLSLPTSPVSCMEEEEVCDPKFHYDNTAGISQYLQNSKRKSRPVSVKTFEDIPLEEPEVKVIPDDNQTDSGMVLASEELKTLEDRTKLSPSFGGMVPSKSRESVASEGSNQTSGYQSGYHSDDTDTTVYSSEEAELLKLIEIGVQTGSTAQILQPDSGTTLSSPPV
Chain of Met (phospho-Met, HGF-stimulated PC-3 prostate cancer cells) (P08581 25-1390): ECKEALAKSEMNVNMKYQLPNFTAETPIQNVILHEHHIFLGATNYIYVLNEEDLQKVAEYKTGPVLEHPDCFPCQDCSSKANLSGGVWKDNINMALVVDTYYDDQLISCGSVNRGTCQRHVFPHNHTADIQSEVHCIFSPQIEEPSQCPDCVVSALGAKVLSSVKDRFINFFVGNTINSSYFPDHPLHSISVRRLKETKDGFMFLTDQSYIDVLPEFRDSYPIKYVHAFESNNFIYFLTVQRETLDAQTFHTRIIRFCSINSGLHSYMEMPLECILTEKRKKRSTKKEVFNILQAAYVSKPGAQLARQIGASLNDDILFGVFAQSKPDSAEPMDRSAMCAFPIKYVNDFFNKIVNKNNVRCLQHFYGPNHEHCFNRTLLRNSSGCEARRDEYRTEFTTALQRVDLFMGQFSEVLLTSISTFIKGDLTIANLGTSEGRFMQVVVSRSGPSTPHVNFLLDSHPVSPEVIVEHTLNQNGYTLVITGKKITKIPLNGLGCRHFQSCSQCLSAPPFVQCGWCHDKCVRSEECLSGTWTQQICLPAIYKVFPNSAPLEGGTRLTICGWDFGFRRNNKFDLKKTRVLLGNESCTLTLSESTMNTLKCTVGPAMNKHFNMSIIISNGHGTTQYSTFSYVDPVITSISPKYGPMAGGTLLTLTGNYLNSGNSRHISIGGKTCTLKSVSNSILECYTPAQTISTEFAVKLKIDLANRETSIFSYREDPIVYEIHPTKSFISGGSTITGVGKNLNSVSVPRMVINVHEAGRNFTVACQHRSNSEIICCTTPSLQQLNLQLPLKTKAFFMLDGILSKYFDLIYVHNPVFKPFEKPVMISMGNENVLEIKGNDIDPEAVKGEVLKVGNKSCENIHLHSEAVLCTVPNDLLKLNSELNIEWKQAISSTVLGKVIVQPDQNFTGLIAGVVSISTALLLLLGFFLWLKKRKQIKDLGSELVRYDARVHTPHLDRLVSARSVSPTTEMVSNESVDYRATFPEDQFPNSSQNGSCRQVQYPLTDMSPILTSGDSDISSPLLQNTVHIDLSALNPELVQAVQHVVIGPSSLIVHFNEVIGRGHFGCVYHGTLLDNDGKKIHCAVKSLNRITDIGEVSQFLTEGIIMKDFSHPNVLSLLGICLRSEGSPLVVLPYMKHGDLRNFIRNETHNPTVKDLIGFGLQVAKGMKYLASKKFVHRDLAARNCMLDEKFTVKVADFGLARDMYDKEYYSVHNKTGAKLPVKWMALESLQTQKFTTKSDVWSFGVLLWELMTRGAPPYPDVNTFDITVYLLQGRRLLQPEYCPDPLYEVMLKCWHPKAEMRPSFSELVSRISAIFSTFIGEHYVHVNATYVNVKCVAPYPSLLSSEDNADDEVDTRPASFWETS

By IC50 is commonly meant the concentration that inhibits the measured activity by half. As for `COc1cc2nccc(Oc3ccc(NC(=O)c4cnc(C)n(-c5ccc(F)cc5)c4=O)cc3F)c2nc1OC` [Compound 97, N-[4-[(6,7-Dimethoxy-1,5-naphthyridin-4-yl)oxy]-3-fluorophenyl]-1-(4-fluorophenyl)-2-methyl-6-oxopyrimidine-5-carboxamide], the IC50 in assay [1] and in assay [2] was less than 100 nM each time.

Consider `COc1cc2nccc(Oc3ccc(NC(=O)c4c(C)ncn(-c5ccc(F)cc5)c4=O)cc3F)c2nc1OC` [Compound 98, N-[4-[(6,7-Dimethoxy-1,5-naphthyridin-4-yl)oxy]-3-fluorophenyl]-1-(4-fluorophenyl)-4-methyl-6-oxopyrimidine-5-carboxamide], for which the IC50 in assay [1] and in assay [2] was less than 100 nM in each case.

As for `COc1cc2nccc(Oc3ccc(NC(=O)c4cnc(N(C)C)n(-c5ccc(F)cc5)c4=O)cc3F)c2nc1OC` [Compound 100, N-[4-[(6,7-Dimethoxy-1,5-naphthyridin-4-yl)oxy]-3-fluorophenyl]-2-(dimethylamino)-1-(4-fluorophenyl)-6-oxopyrimidine-5-carboxamide], the IC50 in assay [1] and in assay [2] was less than 100 nM each time.

As to `COc1cc2nccc(Oc3ccc(NC(=O)c4c(C)nc(C)n(-c5ccc(F)cc5)c4=O)cc3F)c2nc1OC` [Compound 101, N-[4-[(6,7-Dimethoxy-1,5-naphthyridin-4-yl)oxy]-3-fluorophenyl]-1-(4-fluorophenyl)-2,4-dimethyl-6-oxopyrimidine-5-carboxamide], the IC50 in assay [1] and in assay [2] was less than 100 nM in each case.

Regarding `COc1cc2nccc(Oc3ccc(NC(=O)c4c[nH]c(=O)n(-c5ccc(F)cc5)c4=O)cc3F)c2nc1OC` [Compound 102, N-[4-[(6,7-Dimethoxy-1,5-naphthyridin-4-yl)oxy]-3-fluorophenyl]-3-(4-fluorophenyl)-2,4-dioxo-1H-pyrimidine-5-carboxamide], the IC50 in assay [1] and in assay [2] was less than 100 nM each time.

Regarding `COc1ccc2c(Oc3ccc(NC(=O)c4cnc(C)c(-c5ccc(F)cc5)c4O)cc3F)ccnc2c1` [Compound 105, N-[3-Fluoro-4-(7-methoxyquinolin-4-yl)oxyphenyl]-5-(4-fluorophenyl)-4-hydroxy-6-methylpyridine-3-carboxamide], the IC50 in assay [1] and in assay [2] was less than 100 nM each time.

`COc1ccc2c(Oc3ccc(NC(=O)c4cn(C(C)C)c(C)c(-c5ccc(F)cc5)c4=O)cc3F)ccnc2c1` [Compound 106, N-[3-Fluoro-4-(7-methoxyquinolin-4-yl)oxyphenyl]-5-(4-fluorophenyl)-6-methyl-4-oxo-1-propan-2-ylpyridine-3-carboxamide]: the IC50 is 100 to 300 nM in assay [1] and less than 100 nM in assay [2].

For `CCn1cc(C(=O)Nc2ccc(Oc3ccnc4cc(OC)ccc34)c(F)c2)c(=O)c(-c2ccc(F)cc2)c1C` [Compound 107, 1-Ethyl-N-[3-fluoro-4-(7-methoxyquinolin-4-yl)oxyphenyl]-5-(4-fluorophenyl)-6-methyl-4-oxopyridine-3-carboxamide], the IC50 in assay [1] and in assay [2] was 100 to 300 nM throughout.

In the case of `COc1ccc2c(Oc3ccc(NC(=O)c4cnc(C)c(-c5ccc(F)cc5)c4O)cc3)ccnc2c1` [Compound 108, 5-(4-Fluorophenyl)-4-hydroxy-N-[4-(7-methoxyquinolin-4-yl)oxyphenyl]-6-methylpyridine-3-carboxamide], the half-maximal inhibitory concentration (IC50) in assay [1] was less than 100 nM; in assay [2], 100 to 300 nM.

Consider `COc1cc2nccc(Oc3ccc(NC(=O)c4cnc(C)c(-c5ccc(F)cc5)c4O)cc3F)c2cc1OC` [Compound 109, N-[4-(6,7-Dimethoxyquinolin-4-yl)oxy-3-fluorophenyl]-5-(4-fluorophenyl)-4-hydroxy-6-methylpyridine-3-carboxamide], for which the IC50 in assay [1] and in assay [2] was less than 100 nM each time.

On to `COc1cnc2c(Oc3ccc(NC(=O)c4cn(C)c(C)c(-c5ccc(F)cc5)c4=O)cc3)ccnc2c1` [Compound 111, 5-(4-Fluorophenyl)-N-[4-[(7-methoxy-1,5-naphthyridin-4-yl)oxy]phenyl]-1,6-dimethyl-4-oxopyridine-3-carboxamide], for which the IC50 in assay [1] is greater than 300 nM; in assay [2], 100 to 300 nM.

With `COc1cnc2c(Oc3ccc(NC(=O)c4cn(C)cc(-c5ccc(F)cc5)c4=O)cc3F)ccnc2c1` [Compound 112, N-[3-Fluoro-4-[(7-methoxy-1,5-naphthyridin-4-yl)oxy]phenyl]-5-(4-fluorophenyl)-1-methyl-4-oxopyridine-3-carboxamide], the values for the IC50 in assay [1] and in assay [2] were greater than 300 nM and less than 100 nM, respectively.

As for `COc1ccc2nccc(Oc3ccc(NC(=O)c4cn(C)c(C)c(-c5ccc(F)cc5)c4=O)cc3F)c2n1` [Compound 113, N-[3-Fluoro-4-[(6-methoxy-1,5-naphthyridin-4-yl)oxy]phenyl]-5-(4-fluorophenyl)-1,6-dimethyl-4-oxopyridine-3-carboxamide], the results for the IC50 in assay [1] and in assay [2] were greater than 300 nM and less than 100 nM, respectively.

For the compound `COc1cc2nccc(Oc3ccc(NC(=O)c4cn(C(C)C)c(C)c(-c5ccc(F)cc5)c4=O)cc3)c2nc1OC` [Compound 115, N-[4-[(6,7-Dimethoxy-1,5-naphthyridin-4-yl)oxy]phenyl]-5-(4-fluorophenyl)-6-methyl-4-oxo-1-propan-2-ylpyridine-3-carboxamide], the IC50 was greater than 300 nM in assay [1] and less than 100 nM in assay [2].

As for `CCn1cc(C(=O)Nc2ccc(Oc3ccnc4cc(OC)c(OC)nc34)c(F)c2)c(=O)c(-c2ccc(F)cc2)c1` [Compound 116, N-[4-[(6,7-Dimethoxy-1,5-naphthyridin-4-yl)oxy]-3-fluorophenyl]-1-ethyl-5-(4-fluorophenyl)-4-oxopyridine-3-carboxamide], the half-inhibitory concentration (IC50) in assay [1] and in assay [2] was less than 100 nM throughout.

For `COc1cc2nccc(Oc3ccc(NC(=O)c4cn(CCO)cc(-c5ccc(F)cc5)c4=O)cc3F)c2nc1OC` [Compound 117, N-[4-[(6,7-Dimethoxy-1,5-naphthyridin-4-yl)oxy]-3-fluorophenyl]-5-(4-fluorophenyl)-1-(2-hydroxyethyl)-4-oxopyridine-3-carboxamide], the IC50 in assay [1] and in assay [2] was less than 100 nM throughout.

As for `COc1cc2nccc(Oc3ccc(NC(=O)c4cncc(-c5ccc(F)cc5)c4O)cc3)c2nc1OC` [Compound 118, N-[4-[(6,7-Dimethoxy-1,5-naphthyridin-4-yl)oxy]phenyl]-5-(4-fluorophenyl)-4-hydroxypyridine-3-carboxamide], the concentration for half-maximal inhibition (IC50) in assay [1] and in assay [2] was less than 100 nM throughout.
